Results: patent US11912663B2, “Multi-targeted tyrosine kinase inhibitors and their pharmaceutical uses” (Shanghai AB PharmaTech Ltd., priority 2021, dated 2024)

Key:
FGFR2 = FGFR2 (Homo sapiens (Human), UniProt P21802); test: kinase inhibition, Mobility-Shift Assay; assay type: biochemical; conditions: 1.9 μM ATP
[1] = system: pancreatic cancer cell line (BXPC3); test: tumor cell proliferation inhibition (CTG), pancreatic cancer cell line; assay type: cell-based; conditions: Homo sapiens, BXPC-3, 72 hours
hERG potassium channels = hERG potassium channels (Homo sapiens (Human), UniProt Q12809); test: in vitro inhibitory effect of hERG, whole-cell patch clamp; assay type: cell-based; conditions: whole-cell recording, room temperature
Sequence of hERG potassium channels (Q12809 whole entry): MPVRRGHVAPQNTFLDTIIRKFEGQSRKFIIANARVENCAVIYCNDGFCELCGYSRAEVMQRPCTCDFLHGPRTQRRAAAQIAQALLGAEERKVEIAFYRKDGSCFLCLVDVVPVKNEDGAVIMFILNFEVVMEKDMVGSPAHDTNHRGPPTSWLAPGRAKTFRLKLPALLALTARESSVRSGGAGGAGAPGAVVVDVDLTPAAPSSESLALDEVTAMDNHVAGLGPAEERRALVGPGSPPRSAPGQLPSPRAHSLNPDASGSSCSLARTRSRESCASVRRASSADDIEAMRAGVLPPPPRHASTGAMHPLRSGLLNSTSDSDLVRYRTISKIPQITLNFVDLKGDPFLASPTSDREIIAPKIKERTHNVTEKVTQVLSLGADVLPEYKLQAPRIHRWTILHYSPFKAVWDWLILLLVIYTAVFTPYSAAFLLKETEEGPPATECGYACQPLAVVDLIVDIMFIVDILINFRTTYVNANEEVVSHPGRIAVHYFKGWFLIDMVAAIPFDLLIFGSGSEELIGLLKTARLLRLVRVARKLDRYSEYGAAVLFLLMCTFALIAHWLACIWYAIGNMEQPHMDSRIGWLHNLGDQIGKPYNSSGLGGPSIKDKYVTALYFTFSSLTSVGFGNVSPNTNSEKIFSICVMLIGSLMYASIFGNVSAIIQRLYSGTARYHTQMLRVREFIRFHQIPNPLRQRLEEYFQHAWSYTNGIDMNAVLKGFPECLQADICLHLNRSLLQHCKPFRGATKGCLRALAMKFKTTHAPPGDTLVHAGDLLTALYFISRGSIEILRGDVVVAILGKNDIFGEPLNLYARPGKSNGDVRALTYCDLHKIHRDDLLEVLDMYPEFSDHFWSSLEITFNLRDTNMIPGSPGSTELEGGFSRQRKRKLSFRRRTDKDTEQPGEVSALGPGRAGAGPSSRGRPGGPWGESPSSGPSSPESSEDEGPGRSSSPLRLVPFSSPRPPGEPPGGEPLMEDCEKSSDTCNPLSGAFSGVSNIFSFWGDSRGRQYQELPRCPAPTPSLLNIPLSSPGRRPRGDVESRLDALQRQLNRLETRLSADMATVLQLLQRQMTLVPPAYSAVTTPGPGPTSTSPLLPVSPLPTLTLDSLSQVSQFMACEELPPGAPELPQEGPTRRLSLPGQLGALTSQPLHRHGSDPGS

VEGFR2 (KDR) = VEGFR2 (KDR) (Homo sapiens (Human), UniProt P35968); test: kinase inhibition, Mobility-Shift Assay; assay type: biochemical; conditions: VEGFR2, 92 μM ATP
prostatic cancer (PC-3) = test: tumor cell proliferation inhibition (CTG), PC-3; assay type: cell-based; conditions: 72 hours
[2] = system: gastric cancer cell line (SNU16); test: tumor cell proliferation inhibition (CTG), gastric cancer cell line; assay type: cell-based; conditions: Homo sapiens, SNU-16, 72 hours, read-out: SUN16 IC50
[3] = system: hepatocellular carcinoma cell line (Hep3B 2.1-7); test: tumor cell proliferation inhibition (CTG), hepatocellular carcinoma cell line; assay type: cell-based; conditions: Homo sapiens, 72 hours
[4] = system: lung cancer cell line (A549); test: tumor cell proliferation inhibition (CTG), lung cancer cell line; assay type: cell-based; conditions: Homo sapiens, 72 hours
RET = RET (Homo sapiens (Human), UniProt P07949); test: kinase inhibition, Mobility-Shift Assay; assay type: biochemical; conditions: 23 μM ATP
Sequence of RET (P07949 29-1114): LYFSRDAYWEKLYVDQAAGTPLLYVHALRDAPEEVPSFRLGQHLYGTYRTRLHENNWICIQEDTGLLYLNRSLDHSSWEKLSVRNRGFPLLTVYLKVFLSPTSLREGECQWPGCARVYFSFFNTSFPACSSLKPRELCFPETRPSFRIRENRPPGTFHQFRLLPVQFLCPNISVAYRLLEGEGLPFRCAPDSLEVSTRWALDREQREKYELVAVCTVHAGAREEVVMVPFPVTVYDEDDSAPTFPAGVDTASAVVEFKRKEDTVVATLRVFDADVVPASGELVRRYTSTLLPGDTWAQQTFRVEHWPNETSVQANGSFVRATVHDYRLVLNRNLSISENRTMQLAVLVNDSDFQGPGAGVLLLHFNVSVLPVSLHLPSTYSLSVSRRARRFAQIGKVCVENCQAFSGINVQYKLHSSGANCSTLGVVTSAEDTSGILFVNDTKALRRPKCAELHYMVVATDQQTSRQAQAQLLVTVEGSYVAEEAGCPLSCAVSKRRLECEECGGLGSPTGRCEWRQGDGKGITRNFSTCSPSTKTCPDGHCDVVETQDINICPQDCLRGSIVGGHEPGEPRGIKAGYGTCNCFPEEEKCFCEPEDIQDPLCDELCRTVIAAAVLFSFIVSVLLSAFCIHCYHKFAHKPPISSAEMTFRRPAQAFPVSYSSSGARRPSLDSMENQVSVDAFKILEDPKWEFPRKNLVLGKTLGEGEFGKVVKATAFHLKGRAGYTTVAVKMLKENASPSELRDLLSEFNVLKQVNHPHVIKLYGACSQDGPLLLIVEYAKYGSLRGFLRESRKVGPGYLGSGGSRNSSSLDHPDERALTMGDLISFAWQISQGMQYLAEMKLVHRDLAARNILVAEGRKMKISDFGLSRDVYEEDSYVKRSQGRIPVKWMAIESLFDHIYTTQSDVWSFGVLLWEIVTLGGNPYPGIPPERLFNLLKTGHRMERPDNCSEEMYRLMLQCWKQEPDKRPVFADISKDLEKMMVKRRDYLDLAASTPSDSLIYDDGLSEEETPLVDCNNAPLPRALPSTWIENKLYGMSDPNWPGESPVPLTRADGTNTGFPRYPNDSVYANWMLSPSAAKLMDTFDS

[5] = system: kidney cancer cell line (Caki-1); test: tumor cell proliferation inhibition (CTG), kidney cancer cell line; assay type: cell-based; conditions: Homo sapiens, 72 hours, read-out: Caki-1 (renal cancer) IC50
VEGFR3 (FLT4) = VEGFR3 (FLT4) (Homo sapiens (Human), UniProt P35916); test: kinase inhibition, Mobility-Shift Assay; assay type: biochemical; conditions: 84 μM ATP
Sequence of VEGFR3 (FLT4) (P35916 25-1363): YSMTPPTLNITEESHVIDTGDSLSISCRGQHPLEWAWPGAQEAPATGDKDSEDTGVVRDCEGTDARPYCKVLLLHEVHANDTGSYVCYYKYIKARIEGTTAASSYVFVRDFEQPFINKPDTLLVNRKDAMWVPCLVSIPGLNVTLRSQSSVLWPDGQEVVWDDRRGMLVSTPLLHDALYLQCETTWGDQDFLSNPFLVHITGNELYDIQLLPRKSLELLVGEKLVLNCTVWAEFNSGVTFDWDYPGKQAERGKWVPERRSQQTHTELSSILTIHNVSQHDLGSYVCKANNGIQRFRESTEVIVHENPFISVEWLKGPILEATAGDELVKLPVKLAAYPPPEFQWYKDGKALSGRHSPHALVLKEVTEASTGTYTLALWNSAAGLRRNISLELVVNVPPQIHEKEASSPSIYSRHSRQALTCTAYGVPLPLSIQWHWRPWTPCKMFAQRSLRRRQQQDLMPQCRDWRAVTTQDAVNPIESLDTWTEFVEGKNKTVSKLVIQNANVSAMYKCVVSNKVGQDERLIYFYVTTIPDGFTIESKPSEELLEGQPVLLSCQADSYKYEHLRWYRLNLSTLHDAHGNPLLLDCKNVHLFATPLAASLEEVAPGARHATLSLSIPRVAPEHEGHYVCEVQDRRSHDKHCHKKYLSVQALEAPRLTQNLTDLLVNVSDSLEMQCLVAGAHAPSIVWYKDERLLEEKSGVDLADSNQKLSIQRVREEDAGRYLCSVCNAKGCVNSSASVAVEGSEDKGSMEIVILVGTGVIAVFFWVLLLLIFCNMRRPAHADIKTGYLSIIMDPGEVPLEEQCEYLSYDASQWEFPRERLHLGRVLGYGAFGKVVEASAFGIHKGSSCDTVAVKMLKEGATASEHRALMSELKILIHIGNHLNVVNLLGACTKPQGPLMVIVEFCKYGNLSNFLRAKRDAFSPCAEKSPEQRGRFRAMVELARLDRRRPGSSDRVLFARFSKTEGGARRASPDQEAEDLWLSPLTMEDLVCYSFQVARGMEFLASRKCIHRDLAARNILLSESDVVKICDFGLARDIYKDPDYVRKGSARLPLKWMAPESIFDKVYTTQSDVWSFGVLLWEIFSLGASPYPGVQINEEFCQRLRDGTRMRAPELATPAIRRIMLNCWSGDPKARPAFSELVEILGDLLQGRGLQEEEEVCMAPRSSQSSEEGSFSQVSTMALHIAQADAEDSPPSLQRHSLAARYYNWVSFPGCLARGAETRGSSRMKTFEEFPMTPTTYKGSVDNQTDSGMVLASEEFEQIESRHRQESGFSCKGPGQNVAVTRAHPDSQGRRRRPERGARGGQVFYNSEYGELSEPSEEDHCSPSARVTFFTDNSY

[6] = system: BXPC3, SNU16, Hep3B 2.1-7 subcutaneous tumors; test: tumor suppression in nude mice with subcutaneously transplanted tumors; assay type: in vivo; conditions: BXPC3, SNU16, Hep3B 2.1-7 transplants, within 3-4 weeks
Description: These preferred compounds (e.g., IIIb-08, IIIb-09, IIIb-45, IIIb-50, IIIb-55, IIIb-56, IIIb-57, IIIb-58, IIIb-60, IIIb-61, IIIb-65) are currently being used to […] in nude mice subcutaneously transplanted with pancreatic cancer cell line (BXPC3), gastric cancer cell line (SNU16), liver cancer cell line (Hep3B 2.1-7) and other tumor suppressive effects have been observed in vivo, the tumor suppression rate of subcutaneous tumors in nude mice could reach 80-110% within 3-4 weeks. […] Therefore, the preferred compounds “IIIb-08, IIIb-09, IIIb-45, IIIb-50, IIIb-55, IIIb-56, IIIb-57, IIIb-58, IIIb-60, IIIb-61, IIIb-65” designed and synthesized by the present invention not only have better inhibitory activity, but also have better safety and drug-forming properties, which are valuable for further preclinical studies such as pharmacotoxicology and clinical trials.

VEGFR1 (FLT1) = VEGFR1 (FLT1) (Homo sapiens (Human), UniProt P17948); test: kinase inhibition, Mobility-Shift Assay; assay type: biochemical; conditions: 278 μM ATP
[7] = system: cervical cancer cell lines (Hela); test: tumor cell proliferation inhibition (CTG), cervical cancer cell line; assay type: cell-based; conditions: Homo sapiens, 72 hours
[8] = system: leukemia cell line (K562); test: tumor cell proliferation inhibition (CTG), leukemia cell line; assay type: cell-based; conditions: Homo sapiens, 72 hours
[9] = MTD toxicity test in rats; assay type: in vivo; conditions: 150 mg/kg; for MTD toxicity test, clinical outcome: rat, in vivo; for autopsy results of organs: rats, QD, 14 days, heart, liver, lungs, kidneys, stomach, intestines and other organs

Sequence of FGFR2 (P21802 22-821): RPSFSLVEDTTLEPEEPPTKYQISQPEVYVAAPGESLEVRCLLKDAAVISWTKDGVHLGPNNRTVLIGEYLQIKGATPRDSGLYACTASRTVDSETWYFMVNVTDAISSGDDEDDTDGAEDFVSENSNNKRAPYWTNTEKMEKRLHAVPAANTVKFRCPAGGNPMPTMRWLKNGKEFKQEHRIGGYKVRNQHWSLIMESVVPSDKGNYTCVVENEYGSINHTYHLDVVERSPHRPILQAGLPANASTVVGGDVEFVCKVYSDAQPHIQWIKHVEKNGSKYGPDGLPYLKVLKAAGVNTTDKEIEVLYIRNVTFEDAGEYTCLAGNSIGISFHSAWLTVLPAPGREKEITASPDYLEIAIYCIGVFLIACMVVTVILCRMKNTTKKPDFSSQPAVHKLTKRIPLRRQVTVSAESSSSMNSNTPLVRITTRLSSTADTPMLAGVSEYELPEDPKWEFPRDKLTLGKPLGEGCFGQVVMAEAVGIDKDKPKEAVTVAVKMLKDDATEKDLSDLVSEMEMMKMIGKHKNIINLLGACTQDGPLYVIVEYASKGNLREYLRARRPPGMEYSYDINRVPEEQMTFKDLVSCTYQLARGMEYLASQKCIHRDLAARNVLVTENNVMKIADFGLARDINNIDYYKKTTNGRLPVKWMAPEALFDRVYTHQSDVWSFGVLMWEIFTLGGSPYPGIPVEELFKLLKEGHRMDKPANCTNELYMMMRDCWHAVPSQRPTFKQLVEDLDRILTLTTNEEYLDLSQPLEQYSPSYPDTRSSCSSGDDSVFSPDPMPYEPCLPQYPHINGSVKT

SMILES	IC50 (FGFR2)	IC50 [1]	IC50 (hERG potassium channels)	IC50 (VEGFR2 (KDR))	IC50 (prostatic cancer (PC-3))	IC50 [2]	IC50 [3]	IC50 [4]	IC50 (RET)	IC50 [5]	IC50 (VEGFR3 (FLT4))	tumor suppression rate of subcutaneous tumors [6]	IC50 (VEGFR1 (FLT1))	IC50 [7]	IC50 [8]	MTD toxicity test, clinical outcome [9]	autopsy results of organs [9]
NC(=O)c1cc2c(Oc3c(F)cc(NC(=O)NC4CC4)c(Cl)c3F)ccnc2cc1OCC(F)(F)F [IIIb-57]	< 50 nM	< 5000 nM	> 30000 nM	< 5 nM	5000 to 10000 nM	< 5000 nM	< 2500 nM	< 2500 nM	< 5 nM	< 2500 nM	< 5 nM	80-110%	< 5 nM	< 5000 nM	< 5000 nM	no abnormalities such as death	did not reveal any abnormal changes
N#CCOc1cc2nccc(Oc3c(F)cc(NC(=O)NC4CC4)c(Cl)c3F)c2cc1C(N)=O [IIIb-58]	< 50 nM	< 5000 nM	> 30000 nM	< 5 nM	5000 to 10000 nM	< 5000 nM	< 2500 nM	< 2500 nM	< 5 nM	< 2500 nM	< 5 nM	80-110%	< 5 nM	< 5000 nM	< 5000 nM	no abnormalities such as death	did not reveal any abnormal changes
NC(=O)c1cc2c(Oc3c(F)cc(NC(=O)NC4CC4)c(Cl)c3F)ccnc2cc1OCCO [IIIb-60]	< 50 nM	< 5000 nM	> 30000 nM	< 5 nM	5000 to 10000 nM	< 5000 nM	< 2500 nM	< 2500 nM	< 5 nM	< 2500 nM	< 5 nM	80-110%	< 5 nM	< 5000 nM	< 5000 nM	no abnormalities such as death	did not reveal any abnormal changes
NC(=O)c1cc2c(Oc3c(F)cc(NC(=O)NC4CC4)c(Cl)c3F)ccnc2cc1OCC1(N)CC1 [IIIb-61]	< 50 nM	< 5000 nM	> 30000 nM	< 5 nM	5000 to 10000 nM	< 5000 nM	< 2500 nM	< 2500 nM	< 5 nM	< 2500 nM	< 5 nM	80-110%	< 5 nM	< 5000 nM	< 5000 nM	no abnormalities such as death	did not reveal any abnormal changes
N#CCCOc1cc2nccc(Oc3c(F)cc(NC(=O)NC4CC4)c(Cl)c3F)c2cc1C(N)=O [IIIb-65]	< 50 nM	< 5000 nM	> 30000 nM	< 5 nM	5000 to 10000 nM	< 5000 nM	< 2500 nM	< 2500 nM	< 5 nM	< 2500 nM	< 5 nM	80-110%	< 5 nM	< 5000 nM	< 5000 nM	no abnormalities such as death	did not reveal any abnormal changes
